Experimental data published in patent publication US20090137688A1, “PHARMACEUTICAL PRODUCT” (priority 2005, published 2009).
Where a name gives a salt, the structure may show the parent alone.

Assay: Accumulative release from porous silicon samples immersed in PBS buffer, measured by UV spectroscopic technique
Format: physicochemical
Settings: PBS buffer at 37 C; for rate of release when the porous silicon wafer has been coated with cocoa butter, relative to the uncoated state: Method A, cocoa butter layer approx. 1 mm, FIG. 1
Procedure: A number of experiments were performed to show the effect of an excipient upon the release of a beneficial substance from the pores of porous silicon. Three substances were tested: chlorambucil, amitriptyline hydrochloride, neutral red. The excipient employed was cocoa butter. Three methods of combining the porous silicon, excipient, and beneficial substance, were carried out.
Method A comprises the steps of: (a) dissolving the beneficial substance in ethanol; (b) introducing the ethanolic solution of the beneficial substance to the surface of the porous silicon wafer and allowing it to pass into the pores; (c) applying heat to the porous silicon wafer by means of a hot plate to drive off the ethanol, (d) removing the excess beneficial substance, that has not entered the pores, by washing with ethanol; (e) dropping melted cocoa butter oil onto the porous side of the wafer, which has been loaded with a beneficial substance; and (f) allowing the wafer to cool at an ambient temperature of 20 C for approximately one hour, the cocoa butter forming a layer, approximately 1 mm in depth, that coats the surface of the porous silicon.
Method B comprises the steps: (a) dissolving the beneficial substance and excipient in ethanol; (b) introducing the ethanolic solution of the beneficial substance and excipient to the surface of the porous silicon wafer and allowing it to pass into the pores; (c) applying heat to the porous silicon wafer by means of a hot plate thereby driving off the ethanol, and (d) removing the excess beneficial substance and excipient, that have not entered the pores, by washing with ethanol. The porosified wafer, utilized for methods A and B, comprised mesoporous silicon having a porosity of 74%.
Method C comprises the steps: (a) fabricating particles of porous silicon by milling one or more porous silicon membranes; (b) combining the silicon particles with an ethanolic solution of the beneficial substance in a flask; (c) removing the ethanol by rotary evaporation; (d) mixing the beneficial substance loaded particles with excipient, (e) introducing the mixture to a cylindrical die, and (f) applying a uniaxial pressure of 0.5 ton to form a pellet. The porous silicon membrane, utilized for method C, comprises mesoporous silicon having a porosity of: 77%.
Samples of porous silicon that have been combined with beneficial substance and excipient by methods A, B, and C were then immersed in PBS buffer at 37 C, and the accumulative release was measured by means of a UV spectroscopic technique.
The uncoated samples, the results for which are shown in FIG. 1, were prepared, with the steps (a) to (d) of method A.

[1] = mesoporous silicon wafer, porosity 74%

SMILES | rate of release when the porous silicon wafer has been coated with cocoa butter, relative to the uncoated state [1] | rate of release for porous silicon loaded with beneficial substance alone, compared with solution loading with cocoa butter (Method B, mesoporous silicon wafer, porosity 74%, FIG. 2) | rate of release from pellet, excipient free sample versus pellet with equal mass of cocoa butter and porous silicon, during the first seven hours (Method C, compressed pellet, mesoporous silicon porosity 77%, FIG. 3) | rate of release from the excipient containing pellet beyond seven hours (Method C, pellet with equal mass of cocoa butter and porous silicon, FIG. 3)
CN(C)CCC=C1c2ccccc2CCc2ccccc21 [amitriptyline hydrochloride] | slower |  |  | 
O=C(O)CCCc1ccc(N(CCCl)CCCl)cc1 [chlorambucil] | increases | faster than when the excipient is present | higher, from the excipient free sample | accelerates until it is higher than that of the excipient free sample
